Reference: ChEMBL document CHEMBL1201862, “PubChem BioAssay data set” (2004)
Active and inactive are the calls of the source.

Experiments:
Nonstructural protein 1 = Nonstructural protein 1 (Influenza A virus, UniProt Q194T2); assay type: functional, Influenza A virus (A/California/07/2009(H1N1))
Protein skinhead-1 = target: T1, Protein skinhead-1 (Caenorhabditis elegans, UniProt P34707); assay type: functional
T1 sequence (P34707 whole entry): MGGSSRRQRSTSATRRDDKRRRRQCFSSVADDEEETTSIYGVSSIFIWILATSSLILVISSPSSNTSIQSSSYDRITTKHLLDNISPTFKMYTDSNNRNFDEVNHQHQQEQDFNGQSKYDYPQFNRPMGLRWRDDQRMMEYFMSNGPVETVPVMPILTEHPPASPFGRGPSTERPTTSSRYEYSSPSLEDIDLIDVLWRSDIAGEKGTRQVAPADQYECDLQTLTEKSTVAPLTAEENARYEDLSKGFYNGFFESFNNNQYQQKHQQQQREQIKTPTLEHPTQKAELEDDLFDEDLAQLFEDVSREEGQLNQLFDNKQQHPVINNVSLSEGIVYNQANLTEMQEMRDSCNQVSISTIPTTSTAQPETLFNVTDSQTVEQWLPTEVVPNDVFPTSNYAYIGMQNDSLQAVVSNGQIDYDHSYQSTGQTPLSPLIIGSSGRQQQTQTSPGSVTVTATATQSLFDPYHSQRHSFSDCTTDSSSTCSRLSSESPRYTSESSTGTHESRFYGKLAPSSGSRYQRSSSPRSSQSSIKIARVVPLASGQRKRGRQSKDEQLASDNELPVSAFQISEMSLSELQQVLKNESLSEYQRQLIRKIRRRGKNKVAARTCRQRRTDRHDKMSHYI

Caspase-3 = target: T2, Caspase-3 (Homo sapiens, UniProt P42574); assay type: functional;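 note: Dose-response selectivity test against caspase-3 for candidate inhibitors of sentrin-specific proteases (SENPs)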
T2 sequence (P42574 whole entry): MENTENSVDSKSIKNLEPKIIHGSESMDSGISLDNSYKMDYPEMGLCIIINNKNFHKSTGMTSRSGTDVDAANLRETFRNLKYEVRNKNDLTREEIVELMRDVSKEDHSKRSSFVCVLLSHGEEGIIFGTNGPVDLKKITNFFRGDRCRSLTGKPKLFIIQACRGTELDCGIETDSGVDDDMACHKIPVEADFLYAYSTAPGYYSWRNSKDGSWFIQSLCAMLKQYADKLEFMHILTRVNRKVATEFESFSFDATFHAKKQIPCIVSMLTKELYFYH

[1] = target: T3, Apoptotic protease-activating factor 1 (Homo sapiens, UniProt O14727); assay type: functional
T3 sequence (O14727 whole entry): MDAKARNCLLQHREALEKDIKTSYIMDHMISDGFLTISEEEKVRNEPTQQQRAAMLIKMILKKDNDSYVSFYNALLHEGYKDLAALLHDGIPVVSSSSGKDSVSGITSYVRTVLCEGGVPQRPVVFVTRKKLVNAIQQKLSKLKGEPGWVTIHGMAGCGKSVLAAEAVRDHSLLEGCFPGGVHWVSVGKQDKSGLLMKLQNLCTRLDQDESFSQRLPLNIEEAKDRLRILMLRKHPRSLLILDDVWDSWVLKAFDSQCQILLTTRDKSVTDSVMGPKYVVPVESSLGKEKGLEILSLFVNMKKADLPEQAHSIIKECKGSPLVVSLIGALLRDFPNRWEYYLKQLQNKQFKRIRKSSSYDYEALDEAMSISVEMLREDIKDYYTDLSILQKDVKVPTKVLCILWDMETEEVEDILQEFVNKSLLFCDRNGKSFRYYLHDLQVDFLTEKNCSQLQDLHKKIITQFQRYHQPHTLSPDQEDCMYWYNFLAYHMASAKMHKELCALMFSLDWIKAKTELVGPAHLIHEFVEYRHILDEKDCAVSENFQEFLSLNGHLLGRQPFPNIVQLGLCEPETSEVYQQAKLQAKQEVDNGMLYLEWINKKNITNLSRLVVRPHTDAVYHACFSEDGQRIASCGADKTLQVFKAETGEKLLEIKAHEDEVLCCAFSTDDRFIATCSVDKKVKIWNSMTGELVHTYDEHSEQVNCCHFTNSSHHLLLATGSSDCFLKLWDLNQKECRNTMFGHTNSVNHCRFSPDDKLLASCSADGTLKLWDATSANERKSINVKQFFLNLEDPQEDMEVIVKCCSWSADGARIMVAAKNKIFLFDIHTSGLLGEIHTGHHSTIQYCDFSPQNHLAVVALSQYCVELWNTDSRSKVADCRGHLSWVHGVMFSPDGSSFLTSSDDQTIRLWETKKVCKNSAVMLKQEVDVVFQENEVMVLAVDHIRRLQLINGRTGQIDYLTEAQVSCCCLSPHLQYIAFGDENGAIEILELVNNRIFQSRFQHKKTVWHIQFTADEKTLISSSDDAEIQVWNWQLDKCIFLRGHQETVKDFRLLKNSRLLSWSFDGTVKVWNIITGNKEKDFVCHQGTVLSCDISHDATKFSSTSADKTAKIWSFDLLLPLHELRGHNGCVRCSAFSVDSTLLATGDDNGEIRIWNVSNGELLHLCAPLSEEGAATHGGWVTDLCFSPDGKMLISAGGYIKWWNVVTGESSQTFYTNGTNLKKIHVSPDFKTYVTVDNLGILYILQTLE

Sequence of Nonstructural protein 1 (Q194T2 whole entry): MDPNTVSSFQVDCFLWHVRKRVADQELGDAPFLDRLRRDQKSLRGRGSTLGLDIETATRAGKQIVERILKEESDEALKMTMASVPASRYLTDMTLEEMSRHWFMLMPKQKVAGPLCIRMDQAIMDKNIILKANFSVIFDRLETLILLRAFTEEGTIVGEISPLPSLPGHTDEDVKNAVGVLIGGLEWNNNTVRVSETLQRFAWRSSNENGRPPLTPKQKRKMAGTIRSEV

Structure (SMILES) | IC50 (Nonstructural protein 1) | IC50 (Protein skinhead-1) | IC50 (Caspase-3) | IC50 [1]
CC1CC(C)CN(C(=O)c2ccc3c(c2NCCO)C(=O)c2ccccc2C3=O)C1 (centres undefined) | 13 µM (active) | > 100 µM (inactive) | – | –
CCC(=O)N(C1=C(NC)C(=O)c2ccccc2C1=O)C(C)C | – | – | 6.86 µM (active) | 20.8 µM (active)
